Assays:
human TRPV1 [1] = molecular target: T1, human TRPV1 (Homo sapiens, UniProt Q8NER1); test: Capsaicin Activation Assay (FLIPR intracellular Ca2+, recombinant HEK293 cells); type: cell-based; conditions: recombinant HEK293 cells expressing hTRPV1; 50 nM capsaicin; read-out: human TRPV1 capsaicin IC50
T1 construct: expressed in transfected cells

human TRPV1 [2] = molecular target: T1, human TRPV1; test: Acid Activation Assay (pH 5.0, FLIPR intracellular Ca2+, recombinant HEK293 cells); type: cell-based; conditions: percentage of maximal pH 5.0-induced response remaining; HEK293 hTRPV1; max concentration 37.5 μM
Procedure, shortened: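 HEK293 cells stably expressing recombinant hTRPV1 were loaded with calcium dye for 90-120 min at 25° C and pre-treated with compound for 3 min before a pH 5.0 (DPBS/MES) challenge. Peak FLIPR fluorescence over baseline is given as percentage of the maximal pH 5.0-induced response.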

T1 sequence (Q8NER1 whole entry): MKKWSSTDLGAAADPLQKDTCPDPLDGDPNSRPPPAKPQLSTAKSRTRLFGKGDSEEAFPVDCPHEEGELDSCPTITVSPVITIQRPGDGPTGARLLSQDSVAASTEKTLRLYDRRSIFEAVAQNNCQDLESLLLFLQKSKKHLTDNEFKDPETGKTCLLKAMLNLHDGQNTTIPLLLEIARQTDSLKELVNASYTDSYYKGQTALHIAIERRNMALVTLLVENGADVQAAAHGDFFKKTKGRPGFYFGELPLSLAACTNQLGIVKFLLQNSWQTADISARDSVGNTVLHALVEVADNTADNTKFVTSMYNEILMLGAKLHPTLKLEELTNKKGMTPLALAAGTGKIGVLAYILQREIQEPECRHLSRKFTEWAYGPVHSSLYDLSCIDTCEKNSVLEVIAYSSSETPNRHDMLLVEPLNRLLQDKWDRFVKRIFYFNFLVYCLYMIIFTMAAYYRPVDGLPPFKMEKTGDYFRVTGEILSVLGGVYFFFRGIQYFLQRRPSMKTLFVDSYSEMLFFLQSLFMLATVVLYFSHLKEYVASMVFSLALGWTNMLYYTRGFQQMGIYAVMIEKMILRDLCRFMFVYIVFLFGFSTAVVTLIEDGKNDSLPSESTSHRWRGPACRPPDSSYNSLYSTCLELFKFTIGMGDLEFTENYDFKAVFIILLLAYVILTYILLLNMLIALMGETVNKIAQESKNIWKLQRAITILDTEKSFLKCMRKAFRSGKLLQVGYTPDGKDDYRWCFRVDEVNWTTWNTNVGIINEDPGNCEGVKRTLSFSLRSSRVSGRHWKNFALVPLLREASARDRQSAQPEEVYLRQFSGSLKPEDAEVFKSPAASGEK

| Structure (SMILES) | IC50 (human TRPV1 [1]) [nM] | human TRPV1 H+ (max % remain) (human TRPV1 [2]) [%] |
| --- | --- | --- |
| CC1(C)C[C@@H](NC(=O)Nc2cccc3c2C[C@@H](O)C3)c2cccc(F)c2O1 [Example 71, 1-[(4R)-8-fluoro-2,2-dimethyl-3,4-dihydro-2H-chromen-4-yl]-3-[(2S)-2-hydroxy-2,3-dihydro-1H-inden-4-yl]urea] | 520 | 52 |
| CC1(C)C[C@H](NC(=O)Nc2cccc3c2C[C@H](O)C3)c2cc(F)ccc2O1 [Example 104, 1-[(4S)-6-fluoro-2,2-dimethyl-3,4-dihydro-2H-chromen-4-yl]-3-[(2R)-2-hydroxy-2,3-dihydro-1H-inden-4-yl]urea] | > 38000 | 100 |
| O=C(Nc1cccc2c1C[C@H](O)C2)N[C@@H]1CC(CF)(CF)Oc2cc(C(F)F)ccc21 [Example 130, 1-[(4R)-7-(difluoromethyl)-2,2-bis(fluoromethyl)-3,4-dihydro-2H-chromen-4-yl]-3-[(2R)-2-hydroxy-2,3-dihydro-1H-inden-4-yl]urea] | 34000 | 85 |
| O=C(Nc1cccc2c1C[C@H](O)C2)N[C@@H]1COc2ccc(Cl)cc2C1 [Example 27, 1-[(3S)-6-chloro-3,4-dihydro-2H-chromen-3-yl]-3-[(2R)-2-hydroxy-2,3-dihydro-1H-inden-4-yl]urea] | 97 | 11 |
| CC1(C)C[C@@H](NC(=O)Nc2cccc3c2C[C@H](O)C3)c2ccc(C(F)(F)F)nc2O1 [Example 105, 1-[(4R)-2,2-dimethyl-7-(trifluoromethyl)-3,4-dihydro-2H-pyrano[2,3-b]pyridin-4-yl]-3-[(2R)-2-hydroxy-2,3-dihydro-1H-inden-4-yl]urea] | 150 | 39 |
| O=C(Nc1cccc2c1C[C@@H](O)C2)N[C@H]1CCOc2cc(OC(F)(F)F)ccc21 [Example 94, 1-[(2S)-2-hydroxy-2,3-dihydro-1H-inden-4-yl]-3-[(4S)-7-(trifluoromethoxy)-3,4-dihydro-2H-chromen-4-yl]urea] | 5900 | 47 |
| CC1(C)C[C@@H](NC(=O)Nc2ccc(F)c3c2C[C@H](O)C3)c2ccc(F)cc2O1 [Example 138, 1-[(4R)-7-fluoro-2,2-dimethyl-3,4-dihydro-2H-chromen-4-yl]-3-[(2S)-7-fluoro-2-hydroxy-2,3-dihydro-1H-inden-4-yl]urea] | 820 | 4 |
| O=C(Nc1ccc(F)c2c1C[C@H](O)C2)N[C@@H]1CC(CF)(CF)Oc2c(F)cc(F)cc21 [Example 142, 1-[(4R)-6,8-difluoro-2,2-bis(fluoromethyl)-3,4-dihydro-2H-chromen-4-yl]-3-[(2S)-7-fluoro-2-hydroxy-2,3-dihydro-1H-inden-4-yl]urea] | 4000 | 4 |
| O=C(Nc1cccc2c1CC(O)C2)NC1c2ccccc2OCC1Cc1ccc(Cl)c(Cl)c1 (stereo not shown) [Example 112, 1-[3-(3,4-dichlorobenzyl)-3,4-dihydro-2H-chromen-4-yl]-3-(2-hydroxy-2,3-dihydro-1H-inden-4-yl)urea] | 980 | 77 |
| CC1(C)C[C@@H](NC(=O)Nc2cccc3c2C[C@@H](O)C3)c2cc(F)ccc2O1 [Example 83, 1-[(4R)-6-fluoro-2,2-dimethyl-3,4-dihydro-2H-chromen-4-yl]-3-[(2S)-2-hydroxy-2,3-dihydro-1H-inden-4-yl]urea] | 790 | 27 |
| O=C(Nc1cccc2c1C[C@@H](O)C2)N[C@@H]1CC(CF)(CF)Oc2c(Cl)cccc21 [Example 75, 1-[(4R)-8-chloro-2,2-bis(fluoromethyl)-3,4-dihydro-2H-chromen-4-yl]-3-[(2S)-2-hydroxy-2,3-dihydro-1H-inden-4-yl]urea] | 120 | 40 |
| Cc1cccnc1N1CC=C(C(=O)Nc2ccc(S(=O)(=O)C(F)(F)F)cc2)CC1 [E, reference compound] | 100 | 2 |
| O=C(NCC1CCc2cc(C(F)(F)F)ccc2O1)Nc1cccc2c1C[C@H](O)C2 (stereo partly drawn) [Example 26, 1-[(2R)-2-hydroxy-2,3-dihydro-1H-inden-4-yl]-3-{[6-(trifluoromethyl)-3,4-dihydro-2H-chromen-2-yl]methyl}urea] | 770 | 66 |
| O=C(Nc1ccc(F)c2c1C[C@H](O)C2)N[C@@H]1CC(CF)(CF)Oc2ccc(F)cc21 [Example 141, 1-[(4R)-6-fluoro-2,2-bis(fluoromethyl)-3,4-dihydro-2H-chromen-4-yl]-3-[(2S)-7-fluoro-2-hydroxy-2,3-dihydro-1H-inden-4-yl]urea] | 3900 | 5 |
| O=C(Nc1c(F)ccc2c1C[C@H](O)C2)N[C@@H]1CC(CF)(CF)Oc2cc(Cl)ccc21 [Example 175, 1-[(4R)-7-chloro-2,2-bis(fluoromethyl)-3,4-dihydro-2H-chromen-4-yl]-3-[(2R)-5-fluoro-2-hydroxy-2,3-dihydro-1H-inden-4-yl]urea] | 470 | 37 |
| CC(C)(C)c1ccc(Nc2ncnc3cc(-c4ncccc4C(F)(F)F)ccc23)cc1 [B, reference compound] | 55 | 1 |
| O=C(Nc1cccc2c1C[C@H](O)C2)N[C@@H]1CC2(CCC2)Oc2ccccc21 [Example 22, 1-[(4R)-3,4-dihydrospiro[chromene-2,1′-cyclobutan]-4-yl]-3-[(2R)-2-hydroxy-2,3-dihydro-1H-inden-4-yl]urea] | 78 | 73 |
| O=C(Nc1ccc(F)c2c1C[C@H](O)C2)N[C@@H]1CC2(CCC2)Oc2ccc(F)cc21 [Example 143, 1-[(4R)-6-fluoro-3,4-dihydrospiro[chromene-2,1′-cyclobutan]-4-yl]-3-[(2S)-7-fluoro-2-hydroxy-2,3-dihydro-1H-inden-4-yl]urea] | 1100 | 3 |
| CC1(C)C[C@@H](NC(=O)Nc2ccc(F)c3c2C[C@H](O)C3)c2ccc(F)c(Cl)c2O1 [Example 147, 1-[(4R)-8-chloro-7-fluoro-2,2-dimethyl-3,4-dihydro-2H-chromen-4-yl]-3-[(2S)-7-fluoro-2-hydroxy-2,3-dihydro-1H-inden-4-yl]urea] | 440 | 2 |
| CC1(C)C[C@@H](NC(=O)Nc2cccc3c2C[C@H](O)C3)c2ccccc2O1 [Example 17, 1-[(4R)-2,2-dimethyl-3,4-dihydro-2H-chromen-4-yl]-3-[(2R)-2-hydroxy-2,3-dihydro-1H-inden-4-yl]urea] | 240 | 82 |

Continued by falling IC50 (human TRPV1 [1]), values first:

| IC50 (human TRPV1 [1]) [nM] | human TRPV1 H+ (max % remain) (human TRPV1 [2]) [%] | Structure (SMILES) |
| --- | --- | --- |
| 61 | 67 | O=C(Nc1cccc2c1CC(O)C2)NC1CC(c2ccccc2)Oc2ccccc21 (stereo not shown) [Example 118, 1-(2-hydroxy-2,3-dihydro-1H-inden-4-yl)-3-(2-phenyl-3,4-dihydro-2H-chromen-4-yl)urea] |
| 51 | 37 | CCC1(CC)C[C@@H](NC(=O)Nc2cccc3c2C[C@H](O)C3)c2ccc(C(F)(F)F)cc2O1 [Example 53, 1-[(4R)-2,2-diethyl-7-(trifluoromethyl)-3,4-dihydro-2H-chromen-4-yl]-3-[(2R)-2-hydroxy-2,3-dihydro-1H-inden-4-yl]urea] |
| 42 | 52 | C[C@@]1(CF)C[C@@H](NC(=O)Nc2cccc3c2C[C@H](O)C3)c2ccc(C(F)(F)F)cc2O1 [Example 44, 1-[(2S,4R)-2-(fluoromethyl)-2-methyl-7-(trifluoromethyl)-3,4-dihydro-2H-chromen-4-yl]-3-[(2R)-2-hydroxy-2,3-dihydro-1H-inden-4-yl]urea] |
| 37 | 43 | CC1(C)C[C@@H](NC(=O)Nc2cccc3c2C[C@@H](O)C3)c2ccc(F)c(F)c2O1 [Example 38, 1-[(4R)-7,8-difluoro-2,2-dimethyl-3,4-dihydro-2H-chromen-4-yl]-3-[(2S)-2-hydroxy-2,3-dihydro-1H-inden-4-yl]urea] |
| 36 | 64 | C[C@@]1(C(F)F)C[C@@H](NC(=O)Nc2cccc3c2C[C@H](O)C3)c2ccc(Cl)cc2O1 [Example 20, 1-[(2S,4R)-7-chloro-2-(difluoromethyl)-2-methyl-3,4-dihydro-2H-chromen-4-yl]-3-[(2R)-2-hydroxy-2,3-dihydro-1H-inden-4-yl]urea] |
| 24 | 67 | CCC1(CC)C[C@@H](NC(=O)Nc2cccc3c2C[C@H](O)C3)c2cc(F)ccc2O1 [Example 58, 1-[(4R)-2,2-diethyl-6-fluoro-3,4-dihydro-2H-chromen-4-yl]-3-[(2R)-2-hydroxy-2,3-dihydro-1H-inden-4-yl]urea] |
| 24 | 12 | CC1(C)C[C@@H](NC(=O)Nc2cccc3c2C[C@@H](O)C3)c2ccc(Cl)cc2O1 [Example 85, 1-[(4R)-7-chloro-2,2-dimethyl-3,4-dihydro-2H-chromen-4-yl]-3-[(2S)-2-hydroxy-2,3-dihydro-1H-inden-4-yl]urea] |
| 24 | 89 | CCC1(CC)C[C@@H](NC(=O)Nc2cccc3c2C[C@H](O)C3)c2cccc(F)c2O1 [Example 48, 1-[(4R)-2,2-diethyl-8-fluoro-3,4-dihydro-2H-chromen-4-yl]-3-[(2R)-2-hydroxy-2,3-dihydro-1H-inden-4-yl]urea] |
| 17 | 4 | O=C(Nc1cccc2c1C[C@@H](O)C2)N[C@@H]1CCOc2cc(OC(F)(F)F)ccc21 [Example 37, 1-[(2S)-2-hydroxy-2,3-dihydro-1H-inden-4-yl]-3-[(4R)-7-(trifluoromethoxy)-3,4-dihydro-2H-chromen-4-yl]urea] |

Reference: patent US8859584B2, “TRPV1 antagonists” (AbbVie Inc., priority 2011, dated 2014)
